The source of these data is US20240423979A1, “THERAPEUTICALLY EFFECTIVE COMBINATION OF A FLT3 INHIBITOR AND A BCL-2 INHIBITOR FOR THE TREATMENT OF ACUTE MYELOID LEUKEMIA” (Hanmi Pharm. Co., Ltd., priority 2021, published 2024).

In assay [1] the test system is MV-4-11 cell line with FLT3 ITD/ITD isogenic mutation. Briefly: MV-4-11 cell line xenografted mouse model, anti-tumor efficacy. To be noted: MV-4-11 xenograft, Compound A 3 mg/kg; for Maximum inhibition (%): oral once a day for 21 days, combination 3 + 100 mg/kg, largest tumor inhibition rate during observation. It counts as in vivo, BALB/c Nude mouse. The source says:
In a mouse model xenografted with the cell line MV-4-11 with FLT3 ITD/ITD isogenic mutation (ATCC, CRL-9591), a comparative or combination efficacy test of the FLT3 inhibitor, 5-chloro-N-(3-cyclopropyl-5-(((3R,5S)-3,5-dimethylpiperazin-1-yl) methyl) phenyl)-4-(6-methyl-1H-indol-3-yl) pyrimidin-2-amine (hereinafter ‘Compound A’), and the Bcl-2 inhibitor, 4-[4-[[2-(4-chlorophenyl)-4,4-dimethylcyclohexen-1-yl]methyl] piperazin-1-yl]-N-[3-nitro-4-(oxan-4-ylmethylamino) phenyl] sulfonyl-2-(1H-pyrrolo [2,3-b]pyridin-5-yloxy) benzamide (hereinafter ‘venetoclax’), was conducted.
MV-4-11 cell lines were purchased from the American Type Culture Collection (ATCC). To build a mouse model xenografted with this MV-4-11 cell line, a 5-week-old male BALB/c Nude mouse (hereinafter referred to as “Nude Mouse”) was purchased from Charles River Laboratories Japan, Inc.
The MV-4-11 cell line was injected subcutaneously in a nude mouse with 5×10^6 cells/0.15 mL/mouse, and was allowed to grow. Mice with a tumor volume of 80 to 300 mm^3 (length×width^2×0.5) were selected on the day of administration, separated into 4 groups (7/group) and administered for a total of 21 days so that the average tumor volume in each group was almost the same.
The control group was administered DMSO/PEG400/DW (ratio=0.5/2/7.5, volume/volume/volume) mixed solution orally once a day, and the compound A group was administered 3 mg/kg/day once a day. It was orally administered, and the venetoclax group was orally administered once a day at a dose of 100 mg/kg/day. In the combined group, compound A was administered orally once a day at a dose of 3 mg/kg/day, and venetoclax was administered orally once a day at a dose of 100 mg/kg/day. Each group was administered individual medications for 21 days.
The maximum inhibition rate (%) and the change in weight loss (%) of mice were calculated, and the experimental results are shown in Table 1. The Inhibition rate (IR) was obtained from “(1−mean of individual relative tumor volume in the drug treatment group/average of individual relative tumor volume in the control group)×100%”, and the maximum inhibition rate was the largest inhibition rate during the observation period. The change in weight loss (%) was calculated from “(1−weight on the day of measurement/weight on the start day of administration)×100%”. The relative tumor volume was calculated from “the tumor volume/initial tumor volume×100% at the date of measurement”.

Assay [2] deals with MOLM-13 cell line carrying the FLT3-WT/ITD heterogeneous mutation. Briefly: MOLM-13 cell line xenografted mouse model, anti-tumor efficacy. To be noted: MOLM-13 xenograft, Compound A 10 mg/kg, venetoclax 100 mg/kg; for Maximum inhibition (%): oral once a day for 14 days, combination 10 + 100 mg/kg, largest tumor inhibition rate during observation. The format is in vivo, nude mice. The protocol:
In a mouse model xenografted with the MOLM-13 (DSMZ no. ACC 554) cell line carrying the FLT3-WT/ITD heterogeneous mutation, a comparative or combination efficacy test of the FLT3 inhibitor, 5-chloro-N-(3-cyclopropyl-5-(((3R,5S)-3,5-dimethylpiperazine-1-yl) methyl) phenyl)-4-(6-methyl-1H-indol-3-yl) pyrimidin-2-amine (hereinafter ‘Compound A’) and the Bcl-2 inhibitor, venetoclax was conducted.
The MOLM-13 cell line was purchased from Deutsche Sammlung von Mikroorganismen und Zellkulturen (DSMZ) GmbH. To construct a mouse model xenografted with this MOLM-13 cell line, 5-week-old male nude mice were purchased from Charles River Laboratories Japan, Inc.
The MOLM-13 cell line was injected subcutaneously into nude mice at 5×10^6 cells/0.2 mL/mouse, and was allowed to grow. Mice having a tumor volume of 55 to 415 mm^3 (length×width^2×0.5) were selected on the day of administration, and after having been divided into 4 groups (3 mice each in the control group and the compound A group, 4 mice each in the venetoclax group and the compound A and venetoclax combination group) so that the average tumor volume of each group was similar, the control group was administered for 11 days, and each drug administration group received individual medications for 14 days. The control group was measured for 12 days, and each drug administration group was measured for 15 days.
The control group received an oral administration of a mixed solution of DMSO/PEG400/DW (ratio=0.5/2/7.5, volume/volume/volume) once a day, the compound A group received an oral administration once a day at a dose of 10 mg/kg/day, and the venetoclax group received an oral administration once a day at a dose of 100 mg/kg/day. […]
The maximum inhibition rate (%) and the change in weight loss (%) of mice were calculated, and the experimental results are shown in Table 2. […] The change in weight loss (%) was calculated from “(1−body weight on the measurement day/weight on the start date of administration)×100%”. Relative tumor volume was calculated from “tumor volume on measurement day/initial tumor volume×100%”.

Assay [3] has as its system relapsed or refractory AML. In words: Open-label first-in-human dose escalation, exploration and expansion study. It counts as in vivo. The following applies: patients with relapsed or refractory AML, single agent, 80 mg dose daily oral. An excerpt:
This study is an open-label, first-in-human, dose escalation, exploration, and expansion study of Compound A as a single agent and in combination with venetoclax in patients with relapsed or refractory AML. Cycle 1 in dose escalation is defined as 30 days, all other cycles lasting at least 28 days. Patients will receive oral Compound A at QD on a continuous basis, with the exception of Cycle 1 Day 2 in Part A. The study treatment can continue until a discontinuation criterion is met.
The initial dose level of Compound A as a single agent was 20 mg daily and the decision to dose escalate to the next dose level is made based on the assessment of safety variables including moderate toxicity (MT, a Grade 2 AE judged by the investigator to be related to study drug (except for hematologic toxicities)) or dose limiting toxicity (DLT). This study includes 3 parts: Part A: Dose Escalation; Part B: Dose Exploration; and Part C: Dose Expansion.
Part A includes the initial dose escalation cohorts. Provisional dose escalation scheme with the planned doses of Compound A are as follows: 20 mg, 30 mg, 40 mg, 60 mg, 80 mg, 120 mg, 160 mg, 200 mg, or 240 mg. Patients are treated daily in 28-day cycles except for the Cycle 1 (30 days). The DLT observation period is during Cycle 1 starting with the first dose on Day 1. […]

With `Cc1ccc2c(-c3nc(Nc4cc(CN5C[C@@H](C)N[C@@H](C)C5)cc(C5CC5)c4)ncc3Cl)c[nH]c2c1` [Compound A, 5-chloro-N-(3-cyclopropyl-5-(((3R,5S)-3,5-dimethylpiperazin-1-yl)methyl)phenyl)-4-(6-methyl-1H-indol-3-yl) pyrimidin-2-amine], the “complete regression (mice out of 7)” value in assay [1] (9th day of administration, venetoclax 100 mg/kg) is on record as “not observed”. In assay [1] (16th day of administration), the “partial regression (mice out of 7)” value is on record as 1 out of 7. The “Maximum inhibition (%)” value in assay [1] (venetoclax 100 mg/kg) is 54.0%; in assay [2] it was 68.1%. For the same compound, in assay [2] (combined group on 7th day of administration), the “complete regression (mice per group)” value was “not observed”. For the same compound, the “clinical response (complete responses)” value in assay [3] is given as “several complete responses”.
Take `CC1(C)CCC(CN2CCN(c3ccc(C(=O)NS(=O)(=O)c4ccc(NCC5CCOCC5)c([N+](=O)[O-])c4)c(Oc4cnc5[nH]ccc5c4)c3)CC2)=C(c2ccc(Cl)cc2)C1` [Venetoclax, 4-[4-[[2-(4-chlorophenyl)-4,4-dimethylcyclohexen-1-yl]methyl]piperazin-1-yl]-N-[3-nitro-4-(oxan-4-ylmethylamino)phenyl] sulfonyl-2-(1H-pyrrolo [2,3-b]pyridin-5-yloxy) benzamide, reference compound]: the “Maximum inhibition (%)” value in assay [1] (venetoclax 100 mg/kg) was found to be 76.1%; in assay [2], 56.3%.
